Source: patent US8518903B2, “Use of toll-like receptor-9 agonists” (University of Pittsburgh—of the Commonwealth System of …, priority 2007, dated 2013)

How the values were obtained:
enterocytes [1] = assay: LPS-mediated NF-κB (p65) translocation in enterocytes, with and without TLR9 siRNA knock-down; type: cell-based
Protocol: FIG. 7A-E. LPS-mediated translocation in enterocytes which are either (A) untreated or treated with (B) 50 μg/ml LPS; (C) 50 μg/ml LPS+10 μM CpG; or (D) 10 μM CpG. (E) Bar graph showing the nuclear:cytoplasmic ratio for NF-κB in (A)-(D).
FIG. 9A-F. CpG-DNA reduces TLR4 signaling through TLR9 in enterocytes. (A) Western blot showing the amounts of TLR9 protein relative to actin in untreated enterocytes (Ctrl) or in enterocytes treated with 0.084 μM non-specific siRNA or siRNA specific for TLR9. (B)-(E) are immunofluorescence studies showing the relative amounts of p65 in the enterocyte nucleus versus its cytoplasm, when either (B) untreated or treated with (C) 50 μg/ml LPS; (D) 50 μg/ml LPS+10 μM CpG (in the context of normal TLR9 levels) or (E) 50 μg/ml LPS+10 μM CpG (in the context of TLR9 knockdown by siRNA). (E) Bar graph showing the results of (B)-(E).
A second series of experiments was designed to study the consequences of the TLR4 activator LPS and the TLR9 activator CpG on the mediator of activated TLR4, NFκB. As shown by comparing FIGS. 7A and B, LPS causes NFκB to translocate into the nucleus. The extent of translocation caused by LPS is decreased by co-exposure to CpG (FIGS. 7C and E).
All the foregoing three series of experiments have shown that CpG (an activator of TLR9) inhibited the effects of TLR4 activation, including its role in promoting inflammation. […]

[2] = test system: experimental NEC in newborn mice; assay: Murine NEC model in NFkB-GFP transgenic mice (histology, mucosal TNF-α RTPCR, NFκB activation); type: in vivo, mouse; details: NEC mice
Protocol: FIG. 27A-G. CpG-ODN-HS and CpG-DNA reduce the development of experimental NEC in vivo in newborn mice. Newborn NEC and control mice were injected with CpG-ODN-HS or CpG-DNA. A. Histology (H&E) of terminal ileum of breast fed mouse. B. Histology (H&E) of terminal ileum of mouse after induction of NEC. C. Histology (H&E) of terminal ileum of mouse treated with CpG-DNA, after which conditions which induced NEC were applied. D. Histology (H&E) of terminal ileum of mouse treated with CpG-ODN-HS, after which conditions which induced NEC were applied. E. Histology (H&E) of terminal ileum of breast fed mouse treated with CpG-ODN-HS. F. Histology (H&E) of terminal ileum of breast fed mouse treated with CpG-DNA. G. Severity of NEC in newborn mice as scored by a blinded pediatric pathologist. *p<0.05 vs. NEC in saline-injected mice.
FIG. 28. CpG-ODN-HS and CpG-DNA reduce the expression of mucosal TNF-α in NEC newborn mice in vivo.
FIG. 29A-D. Confocal microscopy showing the extent of NFkB activation in mice with NEC in the absence or presence of CpG-ODN-HS. CpG-ODN-HS reduces the level of NFkB activation in NEC newborn mice in vivo. The mice express NFkB-GFP, and sections were stained with anti-GFP antibody (red; arrow).
The effect of the TLR9 agonist CpG-ODN 5′ […] 3′ (SEQ ID NO:10; referred to herein as CpG-ODN-HS) on the mediator of activated TLR4, NFκB, was examined in a murine NEC model (previously described, above). The effect of CpG-ODN-HS on inflammation in the NEC murine model was also examined as a measured by TNF-α expression, which is an index of inflammation.
Materials and methods. Phosphorothioated CpG-ODN-HS and oligodeoxynucleotide (ODN) 1826 ([…]) (SEQ ID NO:6; referred to herein as CpG-DNA) were synthesized by the University of Pittsburgh DNA synthesis facility. ODNs were confirmed to be endotoxin-free by Limulus assay. NFkB-GFP antibody was obtained from Santa Cruz and Abcam. The extent of nuclear translocation was determined in an adaptation of the methodology of Ding and colleagues. In brief, a threshold limit was set based upon the emission signal for the nuclear stain DRAQ5, which therefore defined a nuclear region of interest (ROI). To define a corresponding cytoplasmic region of interest, a circular region 12 pixels beyond the nucleus was stenciled upon each cell. The average integrated pixel intensity pertaining to the corresponding NFkB emission within the cytoplasmic and nuclear regions was then determined for more than 200 cells per treatment group in at least four experiments per group, using MetaMorph software version 6.1 (Molecular Devices Corporation, Downingtown, Pa.).
Mucosal TNF-α expression was measured using quantitative real-time PCR (RTPCR). Quantitative real-time PCR in cultured enterocytes and intestinal tissue using the BioRad iCycler (Biorad, Hercules, CA) was performed as in (Leaphart, C. L., J. Cavallo, S. C. Gribar, S. Cetin, J. Li, M. F. Branca, T. D. Dubowski, C. P. Sodhi, and D. J. Hackam. 2007. A Critical Role for TLR4 in the Pathogenesis of Necrotizing Enterocolitis by Modulating Intestinal Injury and Repair. J Immunology 179:4808-4820). Oligonucleotide primer pairs used for RTPCR were as follows: forward: 5′ […] 3′ (SEQ ID NO:14), reverse: 5′ […] 3′ (SEQ ID NO:15); and forward: 5′ […] 3′ (SEQ ID NO:16), reverse: 5′ […] 3′ (SEQ ID NO:17). Gene expression was normalized to β-actin expression. Where indicated, gene expression was assessed on 2.5% agarose gels using ethidium bromide staining. […]

enterocytes [3] = assay: LPS-mediated cytokine (IL-6) release from enterocytes; type: cell-based; details: 50 μg/ml LPS + 10 μM CpG
Protocol: FIG. 8. CpG-DNA reduces LPS-mediated cytokine release from enterocytes. Bar graph showing the level of supernatant IL-6 in enterocytes which were either untreated (“CTRL”) or treated with 50 μg/ml LPS, 50 m/ml LPS+10 μM CpG, or 10 μM CpG.

Substance: 5′-TCCATGACGTTCCTGACGTT-3′ [CpG-DNA]
- attenuating effect of CpG on translocation of NFκB subunit p65 (enterocytes [1]; enterocytes with TLR9 expression suppressed by siRNA, 50 μg/ml LPS + 10 μM CpG): virtually eliminated
- extent of NFκB translocation into the nucleus caused by LPS (enterocytes [1]; enterocytes, 50 μg/ml LPS + 10 μM CpG vs LPS alone): decreased
- level of expression of mucosal TNF-α in terminal ileum ([2]; RTPCR): reduced
- NEC pathology (histology of terminal ileum) ([2]; treated vs untreated): inhibition of the NEC pathology
- LPS-mediated cytokine release (supernatant IL-6) (enterocytes [3]): reduces
